Patent US20030162759A1, “Aldosterone blocker therapy to prevent or treat inflammation-related disorders” (priority 2000, published 2003)

Tests used:
Assay type in all cases: in vivo, rat
aldosterone infused rats = assay: Assay B aldosterone infusion model: myocardial fibrosis (interstitial collagen volume fraction, hydroxyproline); conditions: aldosterone/salt treatment, 4 weeks
Experimental: Assay B: In vivo Aldosterone Infusion Model Male Sprague Dawley rats (n=39; BW=250 g) […] Uni-nephrectomy performed during implantation of mini-pumps 2. Aldosterone (0.75 mg/hr, sc via aizet minipump) 2. […] 1. […] Sacrifice after 4 weeks. Hearts were stained with hematoxylin&eosin and the collagen specific dye picro-sirius red and were analyzed for determination of interstitial collagen volume fraction and morphologic abnormalities (i.e. necrosis, vascular injury). Hydroxyproline concentration was measured in the frozen hearts.

[1] = system: angiotensin II infused rats; assay: Assay A angiotensin II infusion model: urinary Na+/K+ ratio (natriuresis index); conditions: saline-drinking rats, eplerenone 100 mpk
Source text: 24-hours food and fluid intake and urine output measured every day Urine samples collected every day for determination of urinary electrolytes. Electrolyte excretion. The ratio between daily urinary Na^+ excretion and urinary K^+ excretion (U Na^+/K^+ ratio) was used as an index for natriuresis. Urinary Na^+/K^+ ratio was similar in all groups before the start of the treatments, and increased similarly in all animals upon initiation of the high salt diet.

COX-2 = assay: Assay B aldosterone infusion model: COX-2 mRNA in heart by quantitative RT-PCR (Taqman)
Experimental: Assay B: In vivo Aldosterone Infusion Model Male Sprague Dawley rats (n=39; BW=250 g) […] Uni-nephrectomy performed during implantation of mini-pumps […] Aldosterone ([…], sc via aizet minipump) […] 1. […] Sacrifice after 4 weeks. Hearts were harvested and divided by half through a transverse section at the mid-ventricles: The upper half was stored into formalin. The bottom part was snap-frozen in liquid nitrogen for biochemical analysis. Determination of osteopontin and COX-2 was performed by quantitative RT-PCR (Taqman). Osteopontin was also identified in the heart by immunohistochemistry.

[2] = system: Atrial natriuretic factor (ANP); assay: Assay C: ANP mRNA in left ventricle (TaqMan)
Experimental: The procedure of Assay B was expanded upon in a further study. […] Myocardial tissue from animals in each treatment group was examined after 7, 14, or 30 days of treatment.
Potassium chloride supplementation was added to the saline solution in order to prevent the potential hypokalemia associated with aldosterone excess.
At the time of the surgery, an Alzet 2002 osmotic minipump (Alza Corp., Palo Alto, Calif.) containing either vehicle (9% ethanol/87% propylene glycol/4% dH2O) or 1.0 mg/mL d-aldosterone (Sigma Chemical, St. Louis, Mo.) was inserted subcutaneously at the nape of the neck. Aldosterone was administered at a dose of 0.75 g/hour. […] Animals were sacrificed from each group (n=8-13) after 7, 14, or 30 days of treatment. […]
The fluorogenic 5′-nuclease assay (TaqMan PCR) using Applied Biosystems' 7700 Sequence Detection System (Applied Biosystems, Foster City, Calif.) allowed for real time detection/quantitation of a specific gene by monitoring the increase in fluorescence of a gene-specific, dye-labeled oligonucleotide probe. […] When the probe was annealed to the target gene, fluorescence of 6FAM was prevented by the close proximity of TAMRA. The exonuclease activity of Taq polymerase released the dyes from the oligonucleotide probe by displacing the probe from the target sequence resulting in fluorescence excitation in direct proportion to the amount of target message present. […]

Row | Structure (SMILES) | Myocardial fibrosis (interstitial collagen volume fraction, hydroxyproline concentration) (aldosterone infused rats) | Urinary Na+/K+ ratio (diuretic or natriuretic effect) [1] | COX-2 upregulation in myocardium (COX-2; aldosterone infused rats (FIG. 31)) | COX-2 relative mRNA expression (COX-2; heart, quantitative RT-PCR, aldosterone/salt rats, 4 weeks, eplerenone 100 mpk p.o.) | ANP mRNA upregulation ([2]; after 30 days of treatment) | ANP mRNA ([2]; mean ± SEM after 30 days of treatment, relative to cyclophilin expression, eplerenone 100 mg/kg/day)
1 | C[C@]12CCC(=O)C=C1CC[C@@H]1[C@@H]2[C@@H](O)C[C@]2(C=O)[C@@H](C(=O)CO)CC[C@@H]12 [aldosterone] | absence of myocardial fibrosis |  |  |  |  | 
2 | COC(=O)[C@@H]1CC2=CC(=O)CC[C@]2(C)[C@@]23O[C@@H]2C[C@@]2(C)[C@@H](CC[C@@]24CCC(=O)O4)[C@H]13 [eplerenone, Pregn-4-ene-7,21-dicarboxylic acid, 9,11-epoxy-17-hydroxy-3-oxo-, γ-lactone, methyl ester, (7α, 11α, 17β) -] |  | did not produce a significant diuretic or natriuretic effect | prevention by eplerenone of COX-2 upregulation | 1.8±0.36 | significantly reduced | 9.20 ± 2.44 AU
